Measured values published in patent US8071625B2, “Certain chemical entities, compositions, and methods” (Cytokinetics, Inc., priority 2006, dated 2011).

Target: T1, crosslinked smooth muscle actomyosin (chicken gizzard smooth muscle myosin subfragment-1 crosslinked to cardiac or skeletal actin) (Gallus gallus, UniProt P10587)
T1 construct: chicken gizzard smooth muscle myosin subfragment-1; from tissue; host or cells: chicken gizzard
Assay: Lead optimization pyruvate kinase/horseradish peroxidase/pyruvate oxidase-coupled ATPase assay (compound dose response)
Type: biochemical
Details: read-out: IC50 Arithmetic Mean
Summary of the method: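 The ATPase used chicken gizzard smooth muscle myosin S1 chemically crosslinked to cardiac or skeletal actin, titrated to a set hydrolysis rate. It was coupled via pyruvate kinase/pyruvate oxidase/HRP in 12 mM K-PIPES pH 7.00 (22 °C) with 0.15 mM ATP, 2 mM MgCl2, 100 mM KCl and 0.1 mM Amplex Red. Fluorescence was read at ex 480/em 615 nm, and IC50 came from a 4-parameter fit.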

CCc1ccc(NC(=O)N(CCCOC)CC2(C(=O)NCc3ccccc3Cl)CCN(C(=O)CN)CC2)cc1 [N-[(1-(2-aminoacetyl)-4-{N-[(2-chlorophenyl)methyl]carbamoyl}(4-piperidyl))methyl][(4-ethylphenyl)amino]-N-(3-methoxypropyl)carboxamide]
IC50: 12400 nM

CCc1ccc(NC(=O)OCC2(C(=O)NCc3ccccc3Cl)CCN(C(=O)[C@@H](CO)NC(=O)OC(C)(C)C)CC2)cc1 [N-[(1R)-2-(4-{N-[(2-chlorophenyl)methyl]carbamoyl}-4-{[N-(4-ethylphenyl)carbamoyloxy]methyl}piperidyl)-1-(hydroxymethyl)-2-oxoethyl](tert-butoxy)carboxamide]
IC50: 3500 nM

CCc1ccc(NC(=O)OCC2(C(=O)NCc3ccccc3Cl)CCN(C(=O)[C@@H](C)NC(=O)OC(C)(C)C)CC2)cc1 [N-[(1R)-2-(4-{N-[(2-chlorophenyl)methyl]carbamoyl}-4-{[N-(4-ethylphenyl)carbamoyloxy]methyl}piperidyl)-1-methyl-2-oxoethyl](tert-butoxy)carboxamide]
IC50: 12000 nM

CCc1ccc(NC(=O)OCC2(C(=O)NCc3ccccc3Cl)CCCN(C(=O)[C@H](CO)NC(=O)OC(C)(C)C)C2)cc1 (stereo partly drawn) [N-[(1S)-2-(3-{N-[(2-chlorophenyl)methyl]carbamoyl}-3-{[N-(4-ethylphenyl)carbamoyloxy]methyl}piperidyl)-1-(hydroxymethyl)-2-oxoethyl](tert-butoxy)carboxamide]
IC50: 9090 nM

CCc1ccc(NC(=O)OCC2(C(=O)NCc3ccccc3Cl)CCN(C(=O)[C@H](CO)NC(=O)OC(C)(C)C)CC2)cc1 [N-[(1S)-2-(4-{N-[(2-chlorophenyl)methyl]carbamoyl}-4-{[N-(4-ethylphenyl)carbamoyloxy]methyl}piperidyl)-1-(hydroxymethyl)-2-oxoethyl](tert-butoxy)carboxamide]
IC50: 416 nM

CCc1ccc(NC(=O)OCC2(C(=O)NCc3ccccc3Cl)CCN(C(=O)[C@H](C)NC(=O)OC(C)(C)C)CC2)cc1 [N-[(1S)-2-(4-{N-[(2-chlorophenyl)methyl]carbamoyl}-4-{[N-(4-ethylphenyl)carbamoyloxy]methyl}piperidyl)-1-methyl-2-oxoethyl](tert-butoxy)carboxamide]
IC50: 1510 nM

CCc1ccc(NC(=O)OCC2(C(=O)NCc3ccccc3Cl)CCN(C(=O)C3CCCCC3)CC2)cc1 [N-[(2-chlorophenyl)methyl](1-(cyclohexylcarbonyl)-4-{[N-(4-ethylphenyl)carbamoyloxy]methyl}(4-piperidyl))carboxamide]
IC50: 2770 nM

CCc1ccc(NC(=O)OCC2(C(=O)NCc3ccccc3Cl)CCN(C(=O)C3CC3)CC2)cc1 [N-[(2-chlorophenyl)methyl](1-(cyclopropylcarbonyl)-4-{[N-(4-ethylphenyl)carbamoyloxy]methyl}(4-piperidyl))carboxamide]
IC50: 641 nM

CCc1ccc(NC(=O)OCC2(C(=O)NCc3ccccc3Cl)CCN(CC)CC2)cc1 [N-[(2-chlorophenyl)methyl](1-ethyl-4-{[N-(4-ethylphenyl)carbamoyloxy]methyl}(4-piperidyl))carboxamide]
IC50: 6280 nM

CCc1ccc(NC(=O)OCC2(C(=O)NCc3ccccc3Cl)CC(O)C(O)C2)cc1 (stereo not drawn) [N-[(2-chlorophenyl)methyl](1-{[N-(4-ethylphenyl)carbamoyloxy]methyl}-3,4-dihydroxycyclopentyl)carboxamide]
IC50: 5510 nM

CCc1ccc(NC(=O)OCC2(C(=O)NCc3ccccc3Cl)CC=CC2)cc1 [N-[(2-chlorophenyl)methyl](1-{[N-(4-ethylphenyl)carbamoyloxy]methyl}cyclopent-3-enyl)carboxamide]
IC50: 1360 nM

CCc1ccc(NC(=O)OCC2(C(=O)NCc3ccccc3Cl)CCCN(C(=O)CO)C2)cc1 (stereo not drawn) [N-[(2-chlorophenyl)methyl](3-{[N-(4-ethylphenyl)carbamoyloxy]methyl}-1-(2-hydroxyacetyl)(3-piperidyl))carboxamide]
IC50: 399 nM

N#Cc1ccccc1NC(=O)OCC1(C(=O)NCc2ccccc2Cl)CCOCC1 [N-[(2-chlorophenyl)methyl](4-{[N-(2-cyanophenyl)carbamoyloxy]methyl}(2H-3,4,5,6-tetrahydropyran-4-yl))carboxamide]
IC50: 17000 nM

Cc1ccc(NC(=O)OCC2(C(=O)NCc3ccccc3Cl)CCOCC2)cc1F [N-[(2-chlorophenyl)methyl](4-{[N-(3-fluoro-4-methylphenyl)carbamoyloxy]methyl}(2H-3,4,5,6-tetrahydropyran-4-yl))carboxamide]
IC50: 2210 nM

COc1cccc(NC(=O)OCC2(C(=O)NCc3ccccc3Cl)CCOCC2)c1 [N-[(2-chlorophenyl)methyl](4-{[N-(3-methoxyphenyl)carbamoyloxy]methyl}(2H-3,4,5,6-tetrahydropyran-4-yl))carboxamide]
IC50: 19000 nM

CCc1ccc(N(C)C(=O)OCC2(C(=O)NCc3ccccc3Cl)CCOCC2)cc1 [N-[(2-chlorophenyl)methyl](4-{[N-(4-ethylphenyl)-N-methylcarbamoyloxy]methyl}(2H-3,4,5,6-tetrahydropyran-4-yl))carboxamide]
IC50: 7630 nM

CCc1ccc(NC(=O)OCC2(C(=O)NCc3ccccc3Cl)CCOCC2)cc1 [N-[(2-chlorophenyl)methyl](4-{[N-(4-ethylphenyl)carbamoyloxy]methyl}(2H-3,4,5,6-tetrahydropyran-4-yl))carboxamide]
IC50: 197 nM

CCc1ccc(NC(=O)OCC2(C(=O)NCc3ccccc3Cl)CCNCC2)cc1 [N-[(2-chlorophenyl)methyl](4-{[N-(4-ethylphenyl)carbamoyloxy]methyl}(4-piperidyl))carboxamide]
IC50: 1660 nM

CCc1ccc(NC(=O)OCC2(C(=O)NCc3ccccc3Cl)CCN(C(=O)CO)CC2)cc1 [N-[(2-chlorophenyl)methyl](4-{[N-(4-ethylphenyl)carbamoyloxy]methyl}-1-(2-hydroxyacetyl)(4-piperidyl))carboxamide]
IC50: 173 nM

CCc1ccc(NC(=O)OCC2(C(=O)NCc3ccccc3Cl)CCN(CCO)CC2)cc1 [N-[(2-chlorophenyl)methyl](4-{[N-(4-ethylphenyl)carbamoyloxy]methyl}-1-(2-hydroxyethyl)(4-piperidyl))carboxamide]
IC50: 4040 nM

CCc1ccc(NC(=O)OCC2(C(=O)NCc3ccccc3Cl)CCN(C(=O)COC)CC2)cc1 [N-[(2-chlorophenyl)methyl](4-{[N-(4-ethylphenyl)carbamoyloxy]methyl}-1-(2-methoxyacetyl)(4-piperidyl))carboxamide]
IC50: 486 nM

CCc1ccc(NC(=O)OCC2(C(=O)NCc3ccccc3Cl)CCN(C(=O)c3ccccn3)CC2)cc1 [N-[(2-chlorophenyl)methyl](4-{[N-(4-ethylphenyl)carbamoyloxy]methyl}-1-(2-pyridylcarbonyl)(4-piperidyl))carboxamide]
IC50: 757 nM

CCc1ccc(NC(=O)OCC2(C(=O)NCc3ccccc3Cl)CCN(C(=O)CCOC)CC2)cc1 [N-[(2-chlorophenyl)methyl](4-{[N-(4-ethylphenyl)carbamoyloxy]methyl}-1-(3-methoxypropanoyl)(4-piperidyl))carboxamide]
IC50: 606 nM

CCc1ccc(NC(=O)OCC2(C(=O)NCc3ccccc3Cl)CCN(C(=O)c3cccnc3)CC2)cc1 [N-[(2-chlorophenyl)methyl](4-{[N-(4-ethylphenyl)carbamoyloxy]methyl}-1-(3-pyridylcarbonyl)(4-piperidyl))carboxamide]
IC50: 695 nM

CCc1ccc(NC(=O)OCC2(C(=O)NCc3ccccc3Cl)CCN(C(=O)CCCO)CC2)cc1 [N-[(2-chlorophenyl)methyl](4-{[N-(4-ethylphenyl)carbamoyloxy]methyl}-1-(4-hydroxybutanoyl)(4-piperidyl))carboxamide]
IC50: 492 nM

CCc1ccc(NC(=O)OCC2(C(=O)NCc3ccccc3Cl)CCN(C(=O)C3CCNCC3)CC2)cc1 [N-[(2-chlorophenyl)methyl](4-{[N-(4-ethylphenyl)carbamoyloxy]methyl}-1-(4-piperidylcarbonyl)(4-piperidyl))carboxamide]
IC50: 808 nM

CCc1ccc(NC(=O)OCC2(C(=O)NCc3ccccc3Cl)CCN(C(=O)NC)CC2)cc1 [N-[(2-chlorophenyl)methyl](4-{[N-(4-ethylphenyl)carbamoyloxy]methyl}-1-(N-methylcarbamoyl)(4-piperidyl))carboxamide]
IC50: 302 nM

CCc1ccc(NC(=O)OCC2(C(=O)NCc3ccccc3Cl)CCN(C(=O)c3ncc[nH]3)CC2)cc1 [N-[(2-chlorophenyl)methyl](4-{[N-(4-ethylphenyl)carbamoyloxy]methyl}-1-(imidazol-2-ylcarbonyl)(4-piperidyl))carboxamide]
IC50: 394 nM

CCc1ccc(NC(=O)OCC2(C(=O)NCc3ccccc3Cl)CCN(S(C)(=O)=O)CC2)cc1 [N-[(2-chlorophenyl)methyl](4-{[N-(4-ethylphenyl)carbamoyloxy]methyl}-1-(methylsulfonyl)(4-piperidyl))carboxamide]
IC50: 496 nM

CCc1ccc(NC(=O)OCC2(C(=O)NCc3ccccc3Cl)CCN(C(=O)C3COCCN3)CC2)cc1 (stereo not drawn) [N-[(2-chlorophenyl)methyl](4-{[N-(4-ethylphenyl)carbamoyloxy]methyl}-1-(morpholin-3-ylcarbonyl)(4-piperidyl))carboxamide]
IC50: 515 nM

CCc1ccc(NC(=O)OCC2(C(=O)NCc3ccccc3Cl)CCN(C(=O)c3ccccc3)CC2)cc1 [N-[(2-chlorophenyl)methyl](4-{[N-(4-ethylphenyl)carbamoyloxy]methyl}-1-(phenylcarbonyl)(4-piperidyl))carboxamide]
IC50: 412 nM

CCc1ccc(NC(=O)OCC2(C(=O)NCc3ccccc3Cl)CCN(C(=O)CNC)CC2)cc1 [N-[(2-chlorophenyl)methyl](4-{[N-(4-ethylphenyl)carbamoyloxy]methyl}-1-[2-(methylamino)acetyl](4-piperidyl))carboxamide]
IC50: 213 nM

CCc1ccc(NC(=O)OCC2(C(=O)NCc3ccccc3Cl)CCN(C(=O)C(C)NC)CC2)cc1 (stereo not drawn) [N-[(2-chlorophenyl)methyl](4-{[N-(4-ethylphenyl)carbamoyloxy]methyl}-1-[2-(methylamino)propanoyl](4-piperidyl))carboxamide]
IC50: 1780 nM
